Measured values reported in PubChem BioAssay (NCI).
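Method: 48-hour compound exposure of cells in 96-well plates, five concentrations, linear interpolation of endpoints. The concentration for full growth arrest is given as TGI.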

Key:
Assay in all cases: growth of human tumour cells (NCI), 48 h
[1] = test system: T-47D breast
[2] = test system: BT-549 breast
[3] = test system: UACC-257 melanoma
[4] = test system: HCT-116 colon
[5] = test system: OVCAR-4 ovarian
[6] = test system: SR leukemia
[7] = test system: U251 CNS
[8] = test system: EKVX NSCLC
[9] = test system: SNB-19 CNS
[10] = test system: HOP-92 NSCLC
[11] = test system: SK-MEL-5 melanoma
[12] = test system: SK-MEL-28 melanoma
[13] = test system: HL-60(TB) leukemia
[14] = test system: MCF7 breast
[15] = test system: ACHN renal
[16] = test system: DU-145 prostate
[17] = test system: PC-3 prostate
[18] = test system: A498 renal
[19] = test system: A549 NSCLC
[20] = test system: SK-OV-3 ovarian
[21] = test system: MOLT-4 leukemia
[22] = test system: NCI-H522 lung
[23] = test system: IGROV1 ovarian
[24] = test system: NCI-H226 lung
[25] = test system: OVCAR-5 ovarian
[26] = test system: SF-268 CNS
[27] = test system: SK-MEL-2 melanoma
[28] = test system: SW-620 colon
[29] = test system: SNB-75 CNS
[30] = test system: OVCAR-8 ovarian
[31] = test system: MALME-3M melanoma
[32] = test system: HCT-15 colon
[33] = test system: TK-10 renal
[34] = test system: M14 melanoma
[35] = test system: SF-295 CNS
[36] = test system: SN12C renal
[37] = test system: 786-0 renal
[38] = test system: MDA-MB-435
[39] = test system: OVCAR-3 ovarian
[40] = test system: NCI/ADR-RES ovarian
[41] = test system: SF-539 CNS
[42] = test system: HT29 colon
[43] = test system: HCC-2998 colon
[44] = test system: COLO 205 colon
[45] = test system: HOP-62 NSCLC
[46] = test system: HS 578T breast
[47] = test system: CCRF-CEM leukemia
[48] = test system: RXF 393 renal
[49] = test system: KM12 colon
[50] = test system: UACC-62 melanoma
[51] = test system: LOX IMVI melanoma
[52] = test system: UO-31 renal
[53] = test system: CAKI-1 renal
[54] = test system: NCI-H23 lung
[55] = test system: NCI-H460 lung
[56] = test system: MDA-MB-231 breast
[57] = test system: K-562 leukemia
[58] = test system: RPMI-8226 leukemia

**Q.** What does the source list for `O=C1[C@@H]2[C@@H](c3ccccc3)[C@]2(Cl)C(=O)[C@H]2[C@H](c3ccccc3)[C@@]12Cl`?
**A.** TGI [1]: > 100 µM; TGI [2]: > 100 µM; TGI [3]: > 100 µM; TGI [4]: > 100 µM; TGI [5]: > 100 µM; TGI [6]: > 100 µM; TGI [7]: > 100 µM; TGI [8]: > 100 µM; TGI [9]: > 100 µM; TGI [10]: > 100 µM; TGI [11]: > 100 µM; TGI [12]: > 100 µM; TGI [13]: > 100 µM; TGI [14]: > 100 µM; TGI [15]: > 100 µM; TGI [16]: > 100 µM; TGI [17]: > 100 µM; TGI [18]: > 100 µM; TGI [19]: > 100 µM; TGI [20]: > 100 µM; TGI [21]: > 100 µM; TGI [22]: > 100 µM; TGI [23]: > 100 µM; TGI [24]: > 100 µM; TGI [25]: > 100 µM; TGI [26]: > 100 µM; TGI [27]: > 100 µM; TGI [28]: > 100 µM; TGI [29]: > 100 µM; TGI [30]: > 100 µM; TGI [31]: > 100 µM; TGI [32]: > 100 µM; TGI [33]: > 100 µM; TGI [34]: > 100 µM; TGI [35]: > 100 µM; TGI [36]: > 100 µM; TGI [37]: > 100 µM; TGI [38]: > 100 µM; TGI [39]: > 100 µM; TGI [40]: > 100 µM; TGI [41]: > 100 µM; TGI [42]: > 100 µM; TGI [43]: > 100 µM; TGI [44]: > 100 µM; TGI [45]: > 100 µM; TGI [46]: > 100 µM; TGI [47]: > 100 µM; TGI [48]: > 100 µM; TGI [49]: > 100 µM; TGI [50]: > 100 µM; TGI [51]: > 100 µM; TGI [52]: > 100 µM; TGI [53]: > 100 µM; TGI [54]: > 100 µM; TGI [55]: > 100 µM; TGI [56]: > 100 µM; TGI [57]: > 100 µM

**Q.** Which TGI [1] does the source give for `CCOC(=O)C(C(=S)Nc1ccccc1)c1nn2c(=O)cc(C)nc2s1` (centres undefined) here?
**A.** The TGI was 85.2 µM.

**Q.** What about the TGI [2] of the same molecule?
**A.** Its TGI is 78.7 µM.

**Q.** What about the TGI [3] of the same molecule?
**A.** The TGI was 52.2 µM.

**Q.** What about the TGI [4] of the same molecule?
**A.** The TGI was 48.3 µM.

**Q.** What about the TGI [5] of the same molecule?
**A.** Its TGI is over 100 µM.

**Q.** What about the TGI [6] of the same molecule?
**A.** Its TGI is 80.9 µM.

**Q.** What about the TGI [7] of the same molecule?
**A.** Its TGI is 83 µM.

**Q.** And the TGI [8]?
**A.** The TGI was 49.2 µM.

**Q.** And the TGI [9]?
**A.** Its TGI is over 100 µM.

**Q.** And the TGI [10]?
**A.** The TGI was 57.4 µM.

**Q.** And the TGI [11]?
**A.** The TGI was 41.1 µM.

**Q.** What about the TGI [12] of the same molecule?
**A.** The TGI was 53.4 µM.

**Q.** What about the TGI [13] of the same molecule?
**A.** Its TGI is 43.8 µM.

**Q.** And the TGI [14]?
**A.** Its TGI is 37.8 µM.

**Q.** What about the TGI [15] of the same molecule?
**A.** Its TGI is 66.6 µM.

**Q.** And the TGI [16]?
**A.** Its TGI is over 100 µM.

**Q.** And the TGI [17]?
**A.** The TGI was 66.3 µM.

**Q.** What about the TGI [19] of the same molecule?
**A.** The TGI was over 100 µM.

**Q.** And the TGI [20]?
**A.** Its TGI is 65.7 µM.

**Q.** And the TGI [21]?
**A.** The TGI was 69.1 µM.

**Q.** What about the TGI [22] of the same molecule?
**A.** Its TGI is 53.9 µM.

**Q.** What about the TGI [23] of the same molecule?
**A.** The TGI was over 100 µM.

**Q.** What about the TGI [24] of the same molecule?
**A.** The TGI was 70 µM.

**Q.** What about the TGI [25] of the same molecule?
**A.** The TGI was over 100 µM.

**Q.** What about the TGI [26] of the same molecule?
**A.** The TGI was over 100 µM.

**Q.** And the TGI [27]?
**A.** The TGI was 94.8 µM.

**Q.** What about the TGI [28] of the same molecule?
**A.** The TGI was over 100 µM.

**Q.** And the TGI [29]?
**A.** The TGI was 60 µM.

**Q.** And the TGI [30]?
**A.** The TGI was 51 µM.

**Q.** And the TGI [31]?
**A.** The TGI was 53.5 µM.

**Q.** And the TGI [32]?
**A.** Its TGI is 85 µM.

**Q.** And the TGI [33]?
**A.** Its TGI is 86.8 µM.

**Q.** What about the TGI [34] of the same molecule?
**A.** The TGI was 57.1 µM.

**Q.** What about the TGI [58] of the same molecule?
**A.** The TGI was 67.5 µM.

**Q.** What about the TGI [35] of the same molecule?
**A.** Its TGI is over 100 µM.

**Q.** And the TGI [36]?
**A.** Its TGI is over 100 µM.

**Q.** And the TGI [37]?
**A.** Its TGI is over 100 µM.

**Q.** What about the TGI [38] of the same molecule?
**A.** The TGI was 47.7 µM.

**Q.** And the TGI [39]?
**A.** The TGI was 63.2 µM.

**Q.** And the TGI [40]?
**A.** The TGI was 67.2 µM.

**Q.** And the TGI [41]?
**A.** The TGI was 86.6 µM.

**Q.** What about the TGI [42] of the same molecule?
**A.** Its TGI is 41.4 µM.

**Q.** And the TGI [43]?
**A.** Its TGI is 60.6 µM.

**Q.** What about the TGI [44] of the same molecule?
**A.** Its TGI is 39.5 µM.

**Q.** And the TGI [45]?
**A.** Its TGI is over 100 µM.

**Q.** What about the TGI [46] of the same molecule?
**A.** Its TGI is over 100 µM.

**Q.** What about the TGI [47] of the same molecule?
**A.** Its TGI is over 100 µM.

**Q.** What about the TGI [48] of the same molecule?
**A.** The TGI was over 100 µM.

**Q.** And the TGI [49]?
**A.** Its TGI is 68.8 µM.

**Q.** What about the TGI [50] of the same molecule?
**A.** The TGI was 66.1 µM.

**Q.** What about the TGI [51] of the same molecule?
**A.** The TGI was 30.4 µM.

**Q.** What about the TGI [52] of the same molecule?
**A.** The TGI was 70 µM.

**Q.** And the TGI [53]?
**A.** Its TGI is 84.7 µM.

**Q.** What about the TGI [54] of the same molecule?
**A.** The TGI was 89.5 µM.

**Q.** What about the TGI [55] of the same molecule?
**A.** The TGI was 81.1 µM.

**Q.** And the TGI [56]?
**A.** Its TGI is 70 µM.

**Q.** What about the TGI [57] of the same molecule?
**A.** The TGI was 49 µM.
